Several values for one entry are separate records, joined by “and”; a condition that tells them apart may be missing. Equal values may be shown once.
Assays:
Assay type in all cases: functional, Homo sapiens
[1] = test system: U2OS; test: (§1) Here: values are normalized to the negative (DMSO; defined as 0% autophagy induction) and positive (250nM Torin1; mTOR inhibitor; defined as maximal inducer of autophagy = 100%) control compounds and represented as % of autophagy induction. […] The impact of autophagy induction on cells is complex and depends on the affected target. As such, the magnitude of a phenotype may not be equally mirrored in the %-value of autophagy induction and vice versa. The dynamics of the induction may indicate the mode of activation: e.g. activation via phosphorylation or a signaling cascade may occur fast, while activation via transcription factors may take considerably longer. […] Of note, treatment concentrations may be sub-optimal for specific compounds, leading to false negative annotations.; conditions: Culturing Media DMEM, 1 % Penicillin/Streptomycin, 10% Fetal bovin serum Add-On: No, Screening Media Control DMEM, Screening Media Samples DMEM
[2] = test system: U2OS; test: as §1; conditions: Culturing Media DMEM, 1 % Penicillin/Streptomycin, 10% Fetal bovin serum Add-On: No, Screening Media Control DMEM, Screening Media Samples DMEM; remark: listed apart in the source
[3] = test system: TERT-RPE1; test: as §1; conditions: Culturing Media DMEM/F12 (1:1), 1 % Penicillin/Streptomycin, 10% Fetal bovin serum Add-On: No, Screening Media Control DMEM/F12 (1:1), Screening Media Samples DMEM/F12 (1:1)
[4] = Compound Concentration 0.5 uM, Timepoint 12 hours
[5] = Compound Concentration 0.5 uM, Timepoint 24 hours
[6] = Compound Concentration 0.5 uM, Timepoint 36 hours
[7] = Compound Concentration 0.5 uM, Timepoint 60 hours
[8] = Compound Concentration 2 uM, Timepoint 12 hours
[9] = Compound Concentration 2 uM, Timepoint 24 hours
[10] = Compound Concentration 2 uM, Timepoint 36 hours
[11] = Compound Concentration 2 uM, Timepoint 60 hours
[12] = Compound Concentration 10 uM, Timepoint 12 hours
[13] = Compound Concentration 10 uM, Timepoint 24 hours
[14] = Compound Concentration 10 uM, Timepoint 36 hours
[15] = Compound Concentration 10 uM, Timepoint 60 hours
[16] = Compound Concentration 0.5 uM, Timepoint 12 hours, 12 h, 0.5 µM
[17] = Compound Concentration 0.5 uM, Timepoint 24 hours, 24 h, 0.5 µM
[18] = Compound Concentration 0.5 uM, Timepoint 36 hours, 36 h, 0.5 µM
[19] = Compound Concentration 0.5 uM, Timepoint 60 hours, 60 h, 0.5 µM
[20] = Compound Concentration 2 uM, Timepoint 12 hours, 12 h, 2 µM
[21] = Compound Concentration 2 uM, Timepoint 24 hours, 24 h, 2 µM
[22] = Compound Concentration 2 uM, Timepoint 36 hours, 36 h, 2 µM
[23] = Compound Concentration 2 uM, Timepoint 60 hours, 60 h, 2 µM
[24] = Compound Concentration 10 uM, Timepoint 12 hours, 12 h, 10 µM
[25] = Compound Concentration 10 uM, Timepoint 24 hours, 24 h, 10 µM
[26] = Compound Concentration 10 uM, Timepoint 36 hours, 36 h, 10 µM
[27] = Compound Concentration 10 uM, Timepoint 60 hours, 60 h, 10 µM

| Compound | autophagy induction [1, 4] [%] | autophagy induction [1, 5] [%] | autophagy induction [1, 6] [%] | autophagy induction [1, 7] [%] | autophagy induction [1, 8] [%] | autophagy induction [1, 9] [%] | autophagy induction [1, 10] [%] | autophagy induction [1, 11] [%] | autophagy induction [1, 12] [%] | autophagy induction [1, 13] [%] | autophagy induction [1, 14] [%] | autophagy induction [1, 15] [%] | autophagy induction [2, 4] [%] | autophagy induction [2, 5] [%] | autophagy induction [2, 6] [%] | autophagy induction [2, 7] [%] | autophagy induction [2, 8] [%] | autophagy induction [2, 9] [%] | autophagy induction [2, 10] [%] | autophagy induction [2, 11] [%] | further results |
| --- | --- | --- | --- | --- | --- | --- | --- | --- | --- | --- | --- | --- | --- | --- | --- | --- | --- | --- | --- | --- | --- |
| COc1ccc(CNC(=O)c2cc(-c3cncc(Cl)c3)cnc2-c2ccccn2)nc1OC [MK-1064] | 12.3622 | 4.385 | 3.479 | -7.04 | 9.573 | 2.106 | 1.004 | 0.7274 | 0.3207 | -2.025 | -1.481 | 2.712 | 6.6807 | 0.4544 | -59.909 | -3.175 | 5.723 | -2.067 | 2463.06 | -2.86 | autophagy induction [2, 12]: 2.927%; autophagy induction [2, 13]: -3.704%; autophagy induction [2, 14]: 1020.2%; autophagy induction [2, 15]: -2.212%; autophagy induction [3, 16]: -1.649% and -1.281%; autophagy induction [3, 17]: -0.5797% and -3.213%; autophagy induction [3, 18]: -3.034% and -3.261%; autophagy induction [3, 19]: -3.035% and -4.321%; autophagy induction [3, 20]: 3.536% and 7.073%; autophagy induction [3, 21]: -0.496% and 6.728%; autophagy induction [3, 22]: -2.12% and 5.645%; autophagy induction [3, 23]: -0.3513% and 7.579%; autophagy induction [3, 24]: 0.9286% and 0.4822%; autophagy induction [3, 25]: 1.419% and 1.256%; autophagy induction [3, 26]: 0.4472% and 1.634%; autophagy induction [3, 27]: 0.346% and 3.096% |
| FC(F)(F)c1cccc(-c2noc(-c3cc(-c4ccccc4)c(C(F)(F)F)s3)n2)c1 | 9.021 | 3.382 | -0.06707 | -12.3398 | 0.8817 | -10.2337 | -8.601 | -22.9781 | -28.6388 | -12.6195 | -3.849 | -3.37 | -1.1495 | -3.455 | -61.0771 | -1.369 | -1.566 | -3.4743 | -60.4788 | -1.735 | autophagy induction [2, 12]: -17.6781%; autophagy induction [2, 13]: -7.308%; autophagy induction [2, 14]: -61.2616%; autophagy induction [2, 15]: -2.196%; autophagy induction [3, 16]: 1.977% and -3.815%; autophagy induction [3, 17]: 1.344% and -4.458%; autophagy induction [3, 18]: 0.88% and -7.47%; autophagy induction [3, 19]: -0.5412% and -7.068%; autophagy induction [3, 20]: 8.025% and -0.7273%; autophagy induction [3, 21]: 4.894% and -1.63%; autophagy induction [3, 22]: 2.202% and -4.099%; autophagy induction [3, 23]: 3.847% and -8.453%; autophagy induction [3, 24]: -16.4913% and 2.616%; autophagy induction [3, 25]: -1.867% and 1.296%; autophagy induction [3, 26]: 1.745% and 2.594% |
| CN1CCCC(n2nc(Cc3ccc(Cl)cc3)c3ccccc3c2=O)CC1.Cl (stereo unspecified) [AZELASTINE HYDROCHLORIDE] | 28.6217 | 20.8368 | 11.7893 | 4.08 | -10.9736 | -5.743 | -1.742 | -7.358 | 1.941 | 10.8687 | 9.578 | 17.8748 | -1.752 | -3.995 | 606.483 | -3.291 | -6.53 | -3.506 | -60.9405 | -3.3303 | autophagy induction [2, 12]: -10.1026%; autophagy induction [2, 13]: -0.8464%; autophagy induction [2, 14]: -60.027%; autophagy induction [2, 15]: -3.2037%; autophagy induction [3, 16]: -4.87% and -1.0131%; autophagy induction [3, 17]: -4.869% and -0.0662%; autophagy induction [3, 18]: -3.53% and 2.514%; autophagy induction [3, 19]: -2.083% and 5.845%; autophagy induction [3, 20]: 2.2259% and 11.1438%; autophagy induction [3, 21]: 1.534% and 9.267%; autophagy induction [3, 22]: 3.816% and 8.147%; autophagy induction [3, 24]: 7.066% and 3.619%; autophagy induction [3, 25]: 11.8407% and 4.087%; autophagy induction [3, 26]: 14.8577% and 6.608%; autophagy induction [3, 27]: 14.3498% and 13.0687% |
| CCC[C@H](Oc1cc(C)c(-n2cc(C(F)(F)F)cn2)c(C)c1)c1ccc(C(=O)NCCC(=O)O)cc1 [PF-06291874] | -11.4233 | -19.405 | -11.4713 | -20.1699 | -1.65 | -7.926 | -7.132 | -11.198 | 3.31 | 3.258 | -0.5015 | -15.9451 | -5.893 | -2.993 | -60.6887 | -2.982 | -4.845 | -1.051 | -59.3505 | -1.615 | autophagy induction [2, 12]: -7.606%; autophagy induction [2, 13]: -1.597%; autophagy induction [2, 14]: -60.4241%; autophagy induction [2, 15]: -2.455%; autophagy induction [3, 18]: -0.178% and 20.1142% |

Source: ChEMBL document CHEMBL5724696, “Autophagy assay results for EUbOPEN Chemogenomics Library” (2024)
